Measurements from article PMC11722285, “Exploring the Potential of Malvidin and Echiodinin as Probable Antileishmanial Agents Through In Silico Analysis and In Vitro Efficacy” (Molecules, 2025).
Like-named read-outs stand apart in the source and are kept apart here.

How the values were obtained:
Assay type in all cases: cell-based
[1] = tested on: L. amazonensis stationary promastigotes; assay: In vitro antileishmanial activity, stationary promastigotes (MTT); details: for IC50: 48 h, stationary promastigotes, mean ± SD, read-out: IC50 (µM) Stationary Promastigotes L. amazonensis
Method: (§1) L. amazonensis (IFLA/BR/1967/PH-8), L. braziliensis (MHOM/BR/1975/M2903), and L. infantum (MHOM/BR/1970/BH46) were used as parasites. Stationary promastigotes were grown at a 24 °C in complete Schneider’s medium (Sigma-Aldrich, St. Louis, MO, USA), which was composed of medium plus 20% (v/v) heat-inactivated fetal bovine serum (FBS; Sigma-Aldrich, USA) and 20 mM L-glutamine with a pH of 7.4 [139]. To obtain the axenic amastigotes, 10^9 stationary promastigotes were washed three times in sterile phosphate-buffered saline (PBS 1X and incubated in 5 mL FBS for 48 h (L. amazonensis and L. braziliensis) and 72 h (L. infantum), respectively, at 37 °C. Parasites were washed in cold PBS 1x, and their morphology was evaluated after staining using the Giemsa method in an optical microscope, as previously described.
(§2) AmpB (0 to 10.8 µM; Sigma-Aldrich, USA) was used as control. Cell viability was assessed through 3-(4.5-dimethylthiazol-2-yl)-2.5-diphenyl tetrazolium bromide (Sigma-Aldrich, USA) method. Optical density (OD) values were measured in a microplate spectrophotometer (Molecular Devices, Spectra Max Plus, San Jose, CA, USA) at 570 nm. IC50 values were calculated by sigmoidal regression of dose–response curves in Microsoft Excel software (version 10.0). Two-tailed Student’s t-tests (p < 0.05) were used to compare IC50 values between malvidin and echioidinin, assessing significant differences in inhibitory activity.

[2] = tested on: L. braziliensis stationary promastigotes; assay: as above
Method: as §1, §2

[3] = tested on: L. infantum stationary promastigotes; assay: as above
Method: as §1, §2

[4] = tested on: L. amazonensis axenic amastigotes; assay: In vitro antileishmanial activity, axenic amastigotes (MTT); details: for IC50: 48 h, axenic amastigotes, mean ± SD, read-out: IC50 (µM) Axenic amastigotes L. amazonensis
Method: as §1, §2

[5] = tested on: L. braziliensis axenic amastigotes; assay: as above
Method: as §1, §2

[6] = tested on: L. infantum axenic amastigotes; assay: as above
Method: as §1, §2

O+ human red blood cells = assay: Hemolytic activity; details: human, 1 h
Method: Cytotoxicity was evaluated ex vivo in murine macrophages and human red blood cells, for which concentrations inhibiting 50% of macrophages (CC50) and red blood cells (RBC50) were determined. Briefly, murine cells (5 × 10^5) or a 5% human red blood cells suspension were incubated in the presence of malvidin (0 to 301.84 µM) or echioidinin (0 to 356.76 µM) AmpB (0 to 10.82 µM) was used as control. Cells were incubated in RPMI 1640 medium for 48 h (murine macrophages) or 1 h (red blood cells) at 37 °C in 5% CO2. Macrophage viability was assessed using the MTT method. The red blood cell suspension was centrifuged at 1000× g for 10 min at 4 °C, after which the percentage of cell lysis was evaluated spectrophotometrically at 570 nm. The hemolysis was determined by replacing the natural products with an equal volume of phosphate-buffered saline with a pH of 7.4 (PBS—negative control) or distilled water (positive control). CC50 and RBC50 values were calculated by sigmoidal regression of dose–response curves in Microsoft Excel software (version 10.0). SI was calculated as the ratio between CC50 and IC50 values.

[7] = tested on: L. amazonensis-infected murine macrophages; assay: Treatment of infected macrophages; details: 48 h
Method: (§3) To evaluate the efficacy of malvidin or echioidinin for treating infected macrophages, murine cells (5 × 10^5) were plated on round glass coverslips in 24-well plates in RPMI 1640 medium supplemented with 20% (v/v) FBS and 20 mM L-glutamine at a pH of 7.4 and incubated for 24 h at 37 °C in 5% CO2. Stationary promastigotes were added to the wells at a ratio of 10 parasites per macrophage, and cultures were incubated further for 48 h at 37 °C for 5% CO2. Free parasites were removed by extensive washing with RPMI 1640 medium, and infected macrophages were treated with malvidin (30.18, 60.37, and 120.74 µM), echioidinin (35.18, 70.36, and 140.72 µM), or AmpB (2.70 and 5.41 µM) for 48 h at […] in 5% CO2. After fixation with 4% paraformaldehyde, cells were washed and stained with Giemsa, and the infection percentage, the number of amastigotes per infected macrophage, and the reduction in the infection percentage were determined by counting 200 cells in triplicate, using an optical microscope.

[8] = tested on: L. braziliensis-infected murine macrophages; assay: Treatment of infected macrophages; details: 48 h
Method: as §3

[9] = tested on: L. infantum-infected murine macrophages; assay: Treatment of infected macrophages; details: 48 h
Method: as §3

[10] = ratio between CC50 (macrophages) and IC50

IC50 ([1]; Leishmania amazonensis): 0.06 ± 0.01 µM
IC50 [1]: 0.08 ± 0.02 µM
IC50 ([2]; Leishmania braziliensis, stationary promastigotes, 48 h, mean ± SD, read-out: IC50 (µM) Stationary Promastigotes L. braziliensis): 0.09 ± 0.03 µM
IC50 ([3]; Leishmania infantum, stationary promastigotes, 48 h, mean ± SD, read-out: IC50 (µM) Stationary Promastigotes L. infantum): 0.06 ± 0.01 µM
IC50 ([4]; Leishmania amazonensis): 0.1 ± 0.03 µM
IC50 [4]: 0.09 ± 0.02 µM
IC50 ([5]; Leishmania braziliensis, axenic amastigotes, 48 h, mean ± SD, read-out: IC50 (µM) Axenic amastigotes L. braziliensis): 0.1 ± 0.03 µM
IC50 ([6]; Leishmania infantum, axenic amastigotes, 48 h, mean ± SD, read-out: IC50 (µM) Axenic amastigotes L. infantum): 0.08 ± 0.02 µM
SMILES: C[C@@H]1[C@H](O)[C@@H](C)/C=C/C=C/C=C/C=C/C=C/C=C/C=C/[C@H](O[C@@H]2O[C@H](C)[C@@H](O)[C@H](N)[C@@H]2O)C[C@@H]2O[C@](O)(C[C@@H](O)C[C@@H](O)[C@H](O)CC[C@@H](O)C[C@@H](O)CC(=O)O[C@H]1C)C[C@H](O)[C@H]2C(=O)O [AmpB, amphotericin B, reference compound]
Selectivity Index (SI) Stationary Promastigotes L. amazonensis [1, 10]: 12.60
Selectivity Index (SI) Stationary Promastigotes L. braziliensis [2, 10]: 11.00
Selectivity Index (SI) Stationary Promastigotes L. infantum [3, 10]: 14.70
Selectivity Index (SI) Axenic amastigotes L. amazonensis [4, 10]: 11.00
Selectivity Index (SI) Axenic amastigotes L. braziliensis [5, 10]: 9.80
Selectivity Index (SI) Axenic amastigotes L. infantum [6, 10]: 12.60
RBC50 (O+ human red blood cells): 14.28 ± 1 µM
Infection After Treatment (%) ([7]; 2.71 µM): 34.30%
Infectiveness Reduction (%) ([7]; 2.71 µM): 62.84%
Number of Amastigotes per Macrophage ([7]; 2.71 µM): 2.60
Infection After Treatment (%) ([7]; 5.41 µM): 24.20%
Infectiveness Reduction (%) ([7]; 5.41 µM): 73.78%
Number of Amastigotes per Macrophage ([7]; 5.41 µM): 2.80
Infection After Treatment (%) ([8]; 2.71 µM): 24.40%
Infectiveness Reduction (%) ([8]; 2.71 µM): 64.48%
Number of Amastigotes per Macrophage ([8]; 2.71 µM): 2.60
Infection After Treatment (%) ([8]; 5.41 µM): 16.50%
Infectiveness Reduction (%) ([8]; 5.41 µM): 75.98%
Number of Amastigotes per Macrophage ([8]; 5.41 µM): 2.40
Infection After Treatment (%) ([9]; 2.71 µM): 28.70%
Infectiveness Reduction (%) ([9]; 2.71 µM): 61.48%
Number of Amastigotes per Macrophage ([9]; 2.71 µM): 3.00
Infection After Treatment (%) ([9]; 5.41 µM): 19.80%
Infectiveness Reduction (%) ([9]; 5.41 µM): 73.42%
Number of Amastigotes per Macrophage ([9]; 5.41 µM): 2.50
